Measured values as given in patent publication US11319348B2, “Synthetic beta-amyloid peptides capable of forming stable antigenic oligomers” (The Regents of the University of California, priority 2016, dated 2022).
Non-standard residues stand in square brackets, D forms with d. No end group written: not given here. NMeF = CN[C@@H](Cc1ccccc1)C(=O)O; Orn = NCCC[C@H](N)C(=O)O

How the values were obtained:
caspase-3 = caspase-3 activation assay; assay type: cell-based, human; conditions: for caspase-3 activation / induction of caspase-3 mediated apoptosis: SH-SY5Y cells; for caspase-3 activation: 72 h; for caspase-3 activity level compared to staurosporine: after treatment of SH-SY5Y cells; for induction of caspase-3 mediated apoptosis: trimers at 6 μM, within 72 h
Experimental: One of the ways in which A oligomers elicit toxicity is through induction of caspase-3 mediated apoptosis. Trimers 3 and 4 were evaluated for their ability to induce caspase-3 mediated apoptosis using a rhodamine-based caspase-3 activity assay.
The toxicities of peptides 1 and […], and trimers 3 and 4 toward SH-SY5Y cells were assessed by LDH release and caspase-3 activation assays. Cells were incubated in the presence or absence of equivalent concentrations of peptides 1 or 3, or trimers 3 and 4 for 72 h in 96-well plates. The LDH release assay was performed using the Pierce LDH Cytotoxicity Assay Kit from Thermo Scientific. The caspase-3 assay was performed using the Roche APO-One Homogeneous Caspase-3/7 Assay. Experiments were performed in replicates of five and an additional 10 wells were used for controls. Cells were cultured in the inner 60 wells (rows B-G, columns 2-11) of the 96-well plate. DMEM:F12 media (100 μL) was added to the outer wells (rows A and H, columns 1 and 12), in order to ensure the greatest reproducibility of data generated in the inner wells.
SH-SY5Y cells were plated in a 96-well plate at 30,000 cells per well. Cells were incubated in 100 μL of a 1:1 mixture of DMEM:F12 media supplemented with 10% fetal bovine serum, 100 U/mL penicillin, and 100 μg/mL streptomycin at 37° C. in a 5% CO2 atmosphere and allowed to adhere to the bottom of the plate for 24 hours.
After 24 hours, the culture media was removed and replaced with 90 μL of serum-free DMEM:F12 media. A 10 μL aliquot of the working solutions of peptides 1 or 2, or trimers 3 and 4 was added to each well, for a well-concentration of 18 μM and 9 μM for peptides 1 and 2, 6 μM and 3 μM for trimer 3 or 6 μM, 3 μM, 1.5 μM, and 0.75 μM for trimer 4. Experiments were run in replicates of five. Five wells were used as controls and received a 10 μL aliquot of deionized water (vehicle). Another five wells were left untreated, to be subsequently used as controls with lysis buffer for the LDH release assay, or staurosporine for the caspase-3 activation assay. Cells were incubated at 37° C. in a 5% CO2 atmosphere for 72 hours.
After 67 hours, 10 μL of 10× staurosporine was added to the control wells, and the cells were incubated for an additional 5 h. Next, the compound-containing media was removed and replaced with 25 μL of fresh serum-free DMEM/F12 media. A 25-μL aliquot of caspase-3 substrate, prepared according to manufacturer's protocol, was then added to each well. The plate was sealed with a clear adhesive plate sealer and fluorescence was monitored over 18 h while shaking at 250 rpm using a Gemini XPS fluorescence plate reader (excitation at 499 nm, emission at 521 nm). Data from the 18 h time point were processed by subtracting the relative fluorescence units (RFU) of the vehicle control wells from the RFU of the peptides 1 and 2 or trimers 3 and 4-treated wells.

[1] = X-ray crystallography, oligomers in the crystal; assay type: physicochemical; conditions: crystal state
Experimental: The structures of trimers 3 and 4 were elucidated by X-ray crystallography. One of the challenges in X-ray crystallography is determining the X-ray crystallographic phases. Doing so often requires incorporation of a heavy atom—such as selenium, bromine or iodine—through covalent modification. In previously solving the X-ray crystallographic structures of peptides 1 and 2, homologues were prepared containing p-iodophenylalanine. In solving the X-ray crystallographic structures of trimers 3 and 4, two techniques for X-ray crystallographic phase determination that have not been widely used for peptides were employed: sulfur single-wavelength anomalous diffraction (S-SAD) and post-crystallization incorporation of iodide ions into the crystal lattice.
S-SAD was used to determine the X-ray crystallographic structure of trimer 4. The intrinsic anomalous scattering of the sulfur atoms in the asymmetric unit provided sufficient data to determine the X-ray crystallographic phases. […]
Diffraction data for trimers 3 and 4 were collected on a Rigaku Micromax-007HF X-ray diffractometer with a rotating copper anode at 1.54 Å wavelength with 0.5° oscillation. […] Coordinates for the anomalous signals were determined by HySS in the Phenix software suite 1.10.1. Electron density maps were generated using anomalous coordinates determined by HySS as initial positions in Autosol. […]

[2] = size exclusion chromatography in Tris buffer; assay type: physicochemical; conditions: SEC
Description: The elution profile of peptide 8 was compared to the size standards vitamin B12, aprotinin, and cytochrome c, as well as peptide 2. Peptide 8 elutes as a broad peak with three distinct humps (FIG. 41B). […] Peptide 2 elutes as two distinct peaks: a larger peak with an elution volume consistent with the molecular weight of a dimer, and a smaller peak with an elution volume consistent with the molecular weight of a trimer (FIG. 41B). […]

Substance	caspase-3 activation (caspase-3)	caspase-3 activity level compared to staurosporine (caspase-3)	induction of caspase-3 mediated apoptosis (caspase-3)	oligomer size by crystallography [1]	oligomer size [2]
trimer 4: symmetric tris-disulfide crosslinked trimer generated from peptide 4 (chain 1 [Orn]CVF[NMeF]CED; chain 2 [Orn]AIIGL[Orn]V; also: symmetric tris-disulfide crosslinked trimer, macrocyclic by macrolactamization, linkage of strands not given here)	yes	comparable	induced apoptosis		
peptide 1: macrocyclic β-sheet peptide: Aβ17-23 and Aβ30-36 strands linked by two δOrn turns, Orn35, N-methyl on G33 (Seq. ID 18-19)	no		little or no effect		
trimer 3: symmetric tris-disulfide crosslinked trimer generated from peptide 3 (chain 1 [Orn]CVFFCED; chain 2 [Orn]AIIGL[Orn]V; not fully specified (some residues); also: symmetric tris-disulfide crosslinked trimer, macrocyclic by macrolactamization, linkage of strands not given here)	yes	comparable	induced apoptosis	6	
peptide 2: macrocyclic β-sheet peptide: Aβ17-23 and Aβ30-36 strands linked by two δOrn turns, Orn35, N-methyl on F20 (Seq. ID 20-21)	no		little or no effect		dimer, trimer
